According to patent publication US11136312B2, “3,4,5-trisubstituted-1,2,4-triazoles and 3,4,5-trisubstituted-3-thio-1,2,4-triazoles and uses thereof” (Board of Trustees of Southern Illinois University, priority 2017, dated 2021):
pEC50, pKi: −log10 of the molar value.

Experiments:
[1] = molecular target: human somatostatin receptor SSTR2A (Homo sapiens (Human), UniProt P30874); experiment: Competitive radioligand binding, 125I-Tyr-SRIF 14, membrane preparations; details: competitive binding vs 125I-Tyr-SRIF 14, human SSTR2A membranes; read-out: SST2
human somatostatin receptor SSTR2A, sequence (P30874 whole entry): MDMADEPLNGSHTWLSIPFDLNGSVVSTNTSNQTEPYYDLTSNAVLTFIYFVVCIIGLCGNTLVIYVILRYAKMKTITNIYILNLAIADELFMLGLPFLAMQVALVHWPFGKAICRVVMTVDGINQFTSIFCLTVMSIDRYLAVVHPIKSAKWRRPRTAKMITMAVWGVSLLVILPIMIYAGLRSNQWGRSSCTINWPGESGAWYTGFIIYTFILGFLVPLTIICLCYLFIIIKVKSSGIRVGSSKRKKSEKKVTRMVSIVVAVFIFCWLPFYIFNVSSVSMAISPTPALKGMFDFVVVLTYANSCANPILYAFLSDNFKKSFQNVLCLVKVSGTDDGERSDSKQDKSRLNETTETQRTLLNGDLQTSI
Experimental: (§1) Respective membrane receptor preparations were prepared in assay buffer (25 mM HEPES, 10 mM MgCl2, 1 mM CaCl2, 0.5% BSA, pH=7.4) at a 1:150 dilution. […] Binding assays were performed in triplicate for each concentration of ligand in a total volume of 200 μL radioligand (25 μL ligand, 25 μL radioligand, 150 μL receptors) and incubated at room temperature for 90 minutes using a shaking table. Binding was terminated by filtration through GF/B glass fiber filters that were presoaked in 0.5% polyethyleneimine for a minimum of 4 hours. Filters were washed 9× with 1000 μL ice cold wash buffer (50 mM Tris-HCl, pH=7.4, 0.2% BSA). Filters were scored, transferred into plastic test tubes and counted in a gamma counter (Wizard2, Perkin-Elmer). Determination of the Ki for each compound was performed using non-linear regression with GraphPad PRISM-5 software (GraphPad Software, Inc., La Jolla, Calif.).

[2] = molecular target: human somatostatin receptor SSTR1 (Homo sapiens (Human), UniProt P30872); experiment: as above; details: competitive binding vs 125I-Tyr-SRIF 14, human SSTR1 membranes; read-out: SST1
Experimental: as §1

[3] = molecular target: human somatostatin receptor SSTR5 (Homo sapiens (Human), UniProt P35346); experiment: as above; details: competitive binding vs 125I-Tyr-SRIF 14, human SSTR5 membranes; read-out: SST5
Experimental: as §1

[4] = molecular target: human somatostatin receptor SSTR3 (Homo sapiens (Human), UniProt P32745); experiment: as above; details: competitive binding vs 125I-Tyr-SRIF 14, human SSTR3 membranes; read-out: SST3
Experimental: Competitive radioligand binding experiments were performed using MEMBRANE TARGET Systems (Perkin-Elmer, Boston, Mass.) for human somatostatin receptors: SSTR1 (ES-520-M400UA), SSTR2A (ES-521-M400UA), SSTR3 (ES523-M400UA), SSTR4 (ES-524-M400UA) and SSTR5 (ES-522-M400UA) receptors. (See Table 1). Respective membrane receptor preparations were prepared in assay buffer (25 mM HEPES, 10 mM MgCl2, 1 mM CaCl2, 0.5% BSA, pH=7.4) at a 1:150 dilution. Binding assays were performed using 1251-Tyr-SRIF 14 (Perkin-Elmer, NEX 3890) dissolved in 1 mM HCl. Binding assays were performed in triplicate for each concentration of ligand in a total volume of 200 μL radioligand (25 μL ligand, 25 μL radioligand, 150 μL receptors) and incubated at room temperature for 90 minutes using a shaking table. Binding was terminated by filtration through GF/B glass fiber filters that were presoaked in 0.5% polyethyleneimine for a minimum of 4 hours. Filters were washed 9× with 1000 μL ice cold wash buffer (50 mM Tris-HCl, pH=7.4, 0.2% BSA). Filters were scored, transferred into plastic test tubes and counted in a gamma counter (Wizard2, Perkin-Elmer). Determination of the Ki for each compound was performed using non-linear regression with GraphPad PRISM-5 software (GraphPad Software, Inc., La Jolla, Calif.).

[5] = molecular target: CHO-K1 cells expressing human somatostatin SSTR4 (Homo sapiens (Human), UniProt P31391); experiment: Inhibition of forskolin stimulated cAMP, TR-FRET LANCE assay; type: cell-based; details: against 5 μM forskolin
CHO-K1 cells expressing human somatostatin SSTR4, sequence (P31391 whole entry): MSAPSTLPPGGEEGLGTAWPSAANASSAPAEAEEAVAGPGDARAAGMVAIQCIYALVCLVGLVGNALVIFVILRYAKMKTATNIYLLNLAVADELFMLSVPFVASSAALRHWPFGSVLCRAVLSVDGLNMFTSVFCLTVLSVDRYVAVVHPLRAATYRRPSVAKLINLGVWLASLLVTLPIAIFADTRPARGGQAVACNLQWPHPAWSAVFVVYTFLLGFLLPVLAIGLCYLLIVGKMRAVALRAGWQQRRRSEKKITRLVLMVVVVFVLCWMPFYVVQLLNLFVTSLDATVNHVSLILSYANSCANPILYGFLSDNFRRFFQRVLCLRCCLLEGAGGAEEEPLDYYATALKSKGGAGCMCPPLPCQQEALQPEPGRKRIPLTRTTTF
Experimental: Measurement of forskolin stimulated inhibition of cAMP was performed via time-resolved fluorescence resonance energy transfer (TR-FRET) LANCE assay (AD0262, PerkinElmer Life Science, Inc., Boston Mass.). […] LANCE cAMP assay was performed per manufacture instruction with assessment of respective compound, somatostatin-28 (Sigma-Aldrich Co., St. Louis, Mo.) as control agonist, against 5 μM forskolin, performed in triplicate across concentration curve. […] Data was calculated via GraphPad PRISM-5 software.

Compound | pKi [1] | pKi [2] | pKi [3] | pKi [4] | pEC50 [5]
c1ccc(Cc2nnc(Cc3c[nH]c4ccccc34)n2CCCc2c[nH]cn2)cc1 [SK-I-25, 3-((4-(3-(1H-imidazol-4-yl)propyl)-5-benzyl-4H-1,2,4-triazol-3-yl)methyl)-1H-indole] | < 5.00 | – | – | 8.77 | 8.69
Cn1cc(CCc2nnc(Cc3ccc(Cl)c(Cl)c3)n2CCCc2c[nH]cn2)c2ccccc21 [SM-I-60, 3-(2-(4-(3-(1H-Imidazol-4-yl)propyl)-5-(3,4-dichlorobenzyl)-4H-1,2,4-triazol-3-yl)ethyl)-1-methyl-1H-indole] | < 5.00 | 5.50 | < 5.00 | 5.16 | –
Fc1cccc(Cc2nnc(CCc3c[nH]c4ccccc34)n2CCCc2c[nH]cn2)c1 [SM-I-38, 3-(2-(4-(3-(1H-Imidazol-4-yl)propyl)-5-(3-fluorobenzyl)-4H-1,2,4-triazol-3-yl)ethyl)-1H-indole] | < 5.00 | < 5.00 | < 5.00 | < 5.00 | –
COc1cccc(Cc2nnc(CCc3c[nH]c4ccccc34)n2CCCc2c[nH]cn2)c1 [BN-VI-61, 3-(2-(4-(3-(1H-Imidazol-4-yl)propyl)-5-(3-methoxybenzyl)-4H-1,2,4-triazol-3-yl)ethyl)-1H-indole] | < 5.00 | < 5.00 | < 5.00 | < 5.00 | –
COc1ccc(Cc2nnc(Cc3c[nH]c4ccccc34)n2CCCc2c[nH]cn2)cc1 [SK-I-23, 3-((4-(3-(1H-imidazol-4-yl)propyl)-5-(4-methoxybenzyl)-4H-1,2,4-triazol-3-yl)methyl)-1H-indole] | < 5.00 | 5.59 | < 5.00 | < 5.00 | –
FC(F)(F)c1cccc(Cc2nnc(CCc3c[nH]c4ccccc34)n2CCCc2c[nH]cn2)c1 [BN-VI-97, 3-(2-(4-(3-(1H-Imidazol-4-yl)propyl)-5-(3-(trifluoromethyl)benzyl)-4H-1,2,4-triazol-3-yl)ethyl)-1H-indole] | < 5.00 | 5.27 | < 5.00 | < 5.00 | –

Next, values leading:

pKi [1] | pKi [2] | pKi [3] | pKi [4] | pEC50 [5] | Compound
< 5.00 | < 5.00 | < 5.00 | < 5.00 | – | Clc1ccccc1Cc1nnc(CCc2c[nH]c3ccccc23)n1CCCc1c[nH]cn1 [MM-I-17, 3-(2-(4-(3-(1H-Imidazol-4-yl)propyl)-5-(2-chlorobenzyl)-4H-1,2,4-triazol-3-yl)ethyl)-1H-indole]
< 5.00 | 5.16 | < 5.00 | < 5.00 | – | Clc1cccc(Cc2nnc(CCc3c[nH]c4ccccc34)n2CCCc2c[nH]cn2)c1 [BN-VI-56, 3-(2-(4-(3-(1H-Imidazol-4-yl)propyl)-5-(3-chlorobenzyl)-4H-1,2,4-triazol-3-yl)ethyl)-1H-indole]
< 5.00 | 5.32 | < 5.00 | < 5.00 | – | Brc1cccc(Cc2nnc(CCc3c[nH]c4ccccc34)n2CCCc2c[nH]cn2)c1 [SM-I-50, 3-(2-(4-(3-(1H-Imidazol-4-yl)propyl)-5-(3-bromobenzyl)-4H-1,2,4-triazol-3-yl)ethyl)-1H-indole]
5.28 | 5.97 | < 5.00 | < 5.00 | – | COc1ccc(Cc2nnc(Cc3c[nH]c4cc(F)ccc34)n2CCCc2c[nH]cn2)cc1 [SK-I-105, 3-((4-(3-(1H-imidazol-4-yl)propyl)-5-(4-methoxybenzyl)-4H-1,2,4-triazol-3-yl)methyl)-6-fluoro-1H-indole]
5.77 | 6.44 | < 5.00 | 5.95 | – | COc1ccc2[nH]cc(Cc3nnc(Cc4cccc(C(F)(F)F)c4)n3CCCc3c[nH]cn3)c2c1 [SK-I-57, 3-((4-(3-(1H-imidazol-4-yl)propyl)-5-(3-(trifluoromethyl)benzyl)-4H-1,2,4-triazol-3-yl)methyl)-5-methoxy-1H-indole]
6.19 | 7.01 | < 5.00 | 5.76 | – | Fc1ccc2c(Cc3nnc(Cc4c[nH]c5cc(F)ccc45)n3CCCc3c[nH]cn3)c[nH]c2c1 [SK-I-124, 3,3′-((4-(3-(1H-imidazol-4-yl)propyl)-4H-1,2,4-triazol-3,5-diyl)bis(methylene))bis(6-fluoro-1H-indole)]
5.40 | 6.33 | < 5.00 | < 5.00 | – | Fc1ccc(Cc2nnc(Cc3c[nH]c4cc(F)ccc34)n2CCCc2c[nH]cn2)cc1 [SK-I-91, 3-((4-(3-(1H-imidazol-4-yl)propyl)-5-(4-fluorobenzyl)-4H-1,2,4-triazol-3-yl)methyl)-6-fluoro-1H-indole]
